Measurements published in ChEMBL document CHEMBL5604063, “ASAP - DENV-2 NS2B-NS3 protease fluorescence dose response” (2024).
“And” between values parts separate entries of the source, which are not always exact repeats. Equal values may be shown once.

Target: Genome polyprotein (dengue virus type 2, UniProt P29990)
Format: functional, Thailand/16681/1984

Genome polyprotein, sequence (P29990 1346-1475 limits assumed): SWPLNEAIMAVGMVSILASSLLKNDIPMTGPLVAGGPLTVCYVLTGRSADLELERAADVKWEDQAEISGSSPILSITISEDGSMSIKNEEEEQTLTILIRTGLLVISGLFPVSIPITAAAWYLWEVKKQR
Genome polyprotein, sequence (P29990 1476-2093 limits assumed): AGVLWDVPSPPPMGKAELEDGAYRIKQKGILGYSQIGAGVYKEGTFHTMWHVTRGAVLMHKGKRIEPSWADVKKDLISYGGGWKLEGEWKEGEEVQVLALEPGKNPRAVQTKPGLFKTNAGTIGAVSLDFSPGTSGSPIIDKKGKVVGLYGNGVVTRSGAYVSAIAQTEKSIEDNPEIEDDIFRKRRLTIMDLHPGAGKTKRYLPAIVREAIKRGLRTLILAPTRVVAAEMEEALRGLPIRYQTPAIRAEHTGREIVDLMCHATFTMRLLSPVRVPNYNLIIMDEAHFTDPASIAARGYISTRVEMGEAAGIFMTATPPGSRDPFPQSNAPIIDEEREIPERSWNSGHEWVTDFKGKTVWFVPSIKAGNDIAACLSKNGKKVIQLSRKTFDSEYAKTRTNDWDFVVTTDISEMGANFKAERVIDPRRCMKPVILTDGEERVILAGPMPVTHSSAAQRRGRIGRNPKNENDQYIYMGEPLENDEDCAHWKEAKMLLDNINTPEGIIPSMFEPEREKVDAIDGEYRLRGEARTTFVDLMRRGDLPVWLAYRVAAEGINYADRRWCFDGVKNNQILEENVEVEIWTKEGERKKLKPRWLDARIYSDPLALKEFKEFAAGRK

c1ccc2c(CN3CCCc4cnccc4C3)n[nH]c2c1 was tested, and the IC50 was > 99.5 µM.
NCc1cccc(NC(=O)[C@H](NS(=O)(=O)c2cccc(Cl)c2)c2ccc(OCc3ccccc3)cc2)c1 was tested, and the IC50 was > 99.5 µM.
In the case of O=C(O)c1cc(Cl)ccc1S(=O)(=O)NC1CCN(Cc2ccc(F)c(F)c2)CC1, the IC50 is reported as > 99.5 µM.
In the case of O=C(O)c1cc(Cl)ccc1S(=O)(=O)Nc1ccc(N2CCCCC2)c(Cl)c1, the IC50 is reported as 71.6 µM.
NCc1cccc(NC(=O)[C@@H]2C[C@@H]3CC[C@H]2N3C(=O)OCc2ccccc2)c1 was tested, and the IC50 was > 99.5 µM.
CCCNC(=O)Cn1ccnc(N2CC[C@H](CO)C2)c1=O was tested, and the IC50 was > 99.5 µM.
Work on COc1cc(C(=O)O)c(S(=O)(=O)Nc2ccc(Oc3ccccc3Cl)cc2)cc1F yielded an IC50 of 30.3 µM.
With NCc1ccc(CNC(=O)c2cc(Cl)cc(NC(=O)OCc3ccccc3)c2)cc1 the IC50 was > 99.5 µM.
In the case of CN(C)Cc1cccc(-c2ccc(S(=O)(=O)Nc3ccc(Cl)cc3C(=O)O)cc2)c1, the IC50 is reported as > 99.5 µM.
In the case of O=C(O)c1cc(Cl)ccc1S(=O)(=O)NC1CCN(c2ccc(C(F)(F)F)cn2)CC1, the IC50 is reported as > 99.5 µM.
With NCc1cccc(NC(=O)[C@@]23C[C@@H](NC(=O)OCc4ccccc4)C[C@@H]2C3)c1 the IC50 was > 99.5 µM.
Work on O=C(O)Cc1cc(NS(=O)(=O)c2ccc(Oc3ccccc3Cl)cc2)ccc1Cl yielded an IC50 of 96.1 µM.
In the case of NCc1cccc(NC(=O)[C@H](NS(=O)(=O)C2CCCCC2)c2ccc(OCc3ccccc3)cc2)c1, the IC50 is reported as > 99.5 µM.
Cc1nn(C)cc1-c1ccc(S(=O)(=O)Nc2ccc(Cl)cc2C(=O)O)cc1 was tested, and the IC50 was 85.4 µM.
With NCc1cccc(NC(=O)C[C@@H](NC(=O)OCc2ccccc2)c2ccc3c(c2)OCO3)c1 the IC50 was > 99.5 µM.
In the case of O=C(O)c1cc(Cl)ccc1S(=O)(=O)N[C@H]1CCn2c(nnc2C(F)(F)F)C1, the IC50 is reported as > 99.5 µM.
In the case of O=C(Nc1ccc(NS(=O)(=O)c2ccc(Cl)cc2C(=O)O)cc1)c1ccccc1, the IC50 is reported as > 99.5 µM.
For COc1ccc(N2CCC(NS(=O)(=O)c3ccc(Cl)cc3C(=O)O)CC2)cc1, the IC50 was > 99.5 µM.
O=C(O)c1cc(Cl)ccc1S(=O)(=O)N[C@H]1CC[C@@H](Oc2ccccc2)CC1 was tested, and the IC50 was > 99.5 µM.
For CCn1ccnc(N2CCC[C@H]2C(=O)O)c1=O, the IC50 was > 99.5 µM.
In the case of COc1ccc(NS(=O)(=O)c2ccc(Cl)cc2C(=O)O)cc1-n1nnnc1C, the IC50 is reported as > 99.5 µM.
With NCC1CCN(C(=O)c2cc(Cl)cc(NC(=O)OCc3ccccc3)c2)CC1 the IC50 was > 99.5 µM.
For NCc1cccc(NC(=O)[C@H](NC(=O)Cc2ccccc2)c2ccc(OCc3ccccc3)cc2)c1, the IC50 was 32.8 µM and 32.1 µM.
With O=C(O)c1cc(Cl)ccc1NS(=O)(=O)c1ccc(-c2ccccc2Cl)cc1 the IC50 was 6.93 µM.
For O=C(O)c1cc(Cl)ccc1S(=O)(=O)NC1CCN(c2ncnc3c2CCC3)CC1, the IC50 was > 99.5 µM.
For Cn1ccnc(N2CCC(NS(=O)(=O)c3ccc(Cl)cc3C(=O)O)CC2)c1=O, the IC50 was > 99.5 µM.
In the case of O=C(O)c1cc(Cl)ccc1S(=O)(=O)NC1CCN(S(=O)(=O)Cc2ccccc2)CC1, the IC50 is reported as > 99.5 µM.
For NCc1cccc(NC(=O)c2cc(NC(=O)OCc3ccccc3)c(=O)n3c2CCCC3)c1, the IC50 was > 99.5 µM.
COc1ncccc1-c1cccc([C@H](NC(=O)OCc2ccccc2)C(=O)Nc2cccc(CN)c2)c1 was tested, and the IC50 was > 99.5 µM.
For O=C(O)c1cc(Cl)ccc1S(=O)(=O)Nc1ccc(C(=O)N2CCCCC2)cc1, the IC50 was > 99.5 µM.
In the case of O=C(O)c1cc(Cl)ccc1NS(=O)(=O)c1ccc(-c2ccncc2)cc1, the IC50 is reported as > 99.5 µM.
O=C(O)c1cc(Cl)ccc1S(=O)(=O)Nc1ccc(CCN2CCCC2)cc1 was tested, and the IC50 was > 99.5 µM.
In the case of CN(C)[C@@H]1C[C@H](C(=O)Nc2cccc(CN)c2)CN(C(=O)OCc2ccccc2)C1, the IC50 is reported as > 99.5 µM.
Cc1cc(N2CCCCC2)ccc1NS(=O)(=O)c1ccc(Cl)cc1C(=O)O was tested, and the IC50 was > 99.5 µM.
O=C(O)c1cc(Cl)ccc1NS(=O)(=O)c1ccc(-c2cncs2)cc1 was tested, and the IC50 was 75.3 µM.
In the case of NCc1cccc(NC(=O)C[C@@H](NC(=O)OCc2ccccc2)C2CCCCC2)c1, the IC50 is reported as 45.2 µM and 44.4 µM.
NCc1cccc(NC(=O)[C@H](NC(=O)c2ccns2)c2ccc(OCc3ccccc3)cc2)c1 was tested, and the IC50 was > 99.5 µM.
With COc1ccc(NS(=O)(=O)c2ccc(Cl)cc2C(=O)O)cc1N1CCCC1=O the IC50 was > 99.5 µM.
With O=C(O)c1cc(Cl)ccc1S(=O)(=O)Nc1ccc(F)c(N2CCNC2=O)c1 the IC50 was > 99.5 µM.
O=C(O)c1cc(Cl)ccc1NS(=O)(=O)c1ccc(-c2ccccc2F)cc1 showed an IC50 of 10.1 µM.
Cc1cc(N2CCC(NS(=O)(=O)c3ccc(Cl)cc3C(=O)O)CC2)nc(C)n1 was tested, and the IC50 was > 99.5 µM.
With O=C(Cn1ccnc(N2CC[C@H](CO)C2)c1=O)Nc1ccccc1 the IC50 was > 99.5 µM.
NCc1cccc(NC(=O)C[C@@H]2[C@H]3CC[C@H](C3)N2C(=O)OCc2ccccc2)c1 was tested, and the IC50 was > 99.5 µM.
NCc1cccc(NC(=O)[C@H](NC(=O)COc2ccccc2)c2ccc(OCc3ccccc3)cc2)c1 was tested, and the IC50 was 55.2 µM.
For Cn1cc(CCOc2ccc([C@@H](NC(=O)OCc3ccccc3)C(=O)Nc3cccc(CN)c3)cc2)nn1, the IC50 was > 99.5 µM.
NCCc1cccc(NC(=O)c2cc(Cl)cc(NC(=O)OCc3ccccc3)c2)c1 was tested, and the IC50 was 49.7 µM and 44 µM.
For Fc1cccc(F)c1-c1n[nH]cc1CN1CCC(c2nc3ccccc3s2)CC1, the IC50 was > 99.5 µM.
COC(=O)Cc1ccccc1-c1ccc(S(=O)(=O)Nc2ccc(Cl)cc2C(=O)O)cc1 was tested, and the IC50 was 35.5 µM.
With N#Cc1ccc(S(=O)(=O)Nc2ccc(Oc3ccccc3Cl)cc2)c(C(=O)O)c1 the IC50 was 55.7 µM.
For O=C(O)c1cc(Cl)ccc1S(=O)(=O)Nc1ccc(Oc2ccccn2)cc1, the IC50 was > 99.5 µM.
For O=C(O)c1cc(Cl)ccc1S(=O)(=O)Nc1ccc(N2CCCCC2)c(F)c1, the IC50 was > 99.5 µM.
With Cc1cc(C)cc(C(=O)N2CCC(NS(=O)(=O)c3ccc(Cl)cc3C(=O)O)CC2)c1 the IC50 was > 99.5 µM.
With O=C(O)c1cc(Cl)ccc1S(=O)(=O)Nc1ccc(S(=O)(=O)N2CCCCC2)cc1 the IC50 was > 99.5 µM.
Cc1ccc(S(=O)(=O)N2CCC(NS(=O)(=O)c3ccc(Cl)cc3C(=O)O)CC2)cc1 was tested, and the IC50 was > 99.5 µM.
For CCC1([C@H](NC(=O)OCc2ccccc2)C(=O)Nc2cccc(CN)c2)CCCCC1, the IC50 was > 99.5 µM.
CCOC1CC(S(=O)(=O)N[C@H](C(=O)Nc2cccc(CN)c2)c2ccc(OCc3ccccc3)cc2)C1 (stereo partly drawn) was tested, and the IC50 was > 99.5 µM.
With NCc1cccc(NC(=O)[C@H]2[C@@H]3CC[C@@H](C3)[C@H]2NC(=O)OCc2ccccc2)c1 the IC50 was > 99.5 µM.
In the case of CCn1c(=O)c(N2CCC[C@@H]2c2cncn2C)nc2ccccc21, the IC50 is reported as > 99.5 µM.
For CC(C)(C)OC(=O)NCc1cccc(NC(=O)[C@H](NC(=O)OCc2ccccc2)C2CCNCC2)c1, the IC50 was > 99.5 µM.
In the case of NCc1cccc(NC(=O)[C@H](NC(=O)CCc2ccccc2)c2ccc(OCc3ccccc3)cc2)c1, the IC50 is reported as 14.5 µM and 23.3 µM and 22.9 µM.
COc1ncc(C(=O)Nc2cccc(CN)c2)cc1NC(=O)OCc1ccccc1 was tested, and the IC50 was > 99.5 µM.
For C[C@@H]1C[C@H](NS(=O)(=O)c2ccc(Cl)cc2C(=O)O)C[C@H](C)N1Cc1ccccc1, the IC50 was > 99.5 µM.
CSc1ccc([C@H](CC(=O)Nc2cccc(CN)c2)NC(=O)OCc2ccccc2)cc1 was tested, and the IC50 was 44.2 µM.
For O=C(O)c1cc(Cl)ccc1S(=O)(=O)NC1CCN(CC2CCOCC2)CC1, the IC50 was > 99.5 µM.
With NCc1cccc(NC(=O)c2cc(NC(=O)OCc3ccccc3)cc3c2OC(F)(F)O3)c1 the IC50 was > 99.5 µM.
In the case of Cc1cccc(N2CCC(NS(=O)(=O)c3ccc(Cl)cc3C(=O)O)CC2)n1, the IC50 is reported as > 99.5 µM.
O=C(O)c1cc(Cl)ccc1S(=O)(=O)Nc1ccc(N2CCCCCC2)cc1 was tested, and the IC50 was 55.2 µM.
For c1ccc2sc(C3CCN([C@H]4Cc5[nH]c6ccccc6c5C4)CC3)nc2c1, the IC50 was > 99.5 µM.
For CCn1cc(C(=O)NCc2ccccc2)nc(N2CC[C@@H](CO)C2)c1=O, the IC50 was > 99.5 µM.
For CCOc1cc(N2CCN(C)CC2)ccc1NS(=O)(=O)c1ccc(Cl)cc1C(=O)O, the IC50 was > 99.5 µM.
NCc1cccc(NC(=O)[C@@H](NS(=O)(=O)C[C@H]2CCCCO2)c2ccc(OCc3ccccc3)cc2)c1 was tested, and the IC50 was > 99.5 µM.
O=C(O)c1cc(Cl)c(F)cc1S(=O)(=O)Nc1ccc(Oc2ccccc2Cl)cc1 was tested, and the IC50 was 11.2 µM and 10.7 µM.
With CCc1ncc(CN2CCC(c3nc4ccccc4s3)CC2)[nH]1 the IC50 was > 99.5 µM.
Compound NCc1ccc(NC(=O)c2cc(Cl)cc(NC(=O)OCc3ccccc3)c2)cc1 has an IC50 of 51.5 µM.
O=C(O)c1cc(Cl)ccc1S(=O)(=O)NC1CCN(S(=O)(=O)c2ccc(I)cc2)CC1 gave an IC50 of 81.7 µM.
Work on COc1ccc(-c2cc(NS(=O)(=O)c3ccc(Cl)cc3C(=O)O)ccc2OC)cc1 yielded an IC50 of 48.8 µM.
O=C(O)c1cc(Cl)ccc1NS(=O)(=O)c1ccc(-c2cccc(F)c2F)cc1 gave an IC50 of 8.82 µM.
For O=C(O)c1cc(Cl)ccc1NS(=O)(=O)c1ccc(-c2ccc(F)cc2)cc1, the IC50 was 12.5 µM.
CCN1C(=O)CCc2cc(NS(=O)(=O)c3ccc(Cl)cc3C(=O)O)ccc21 was tested, and the IC50 was > 99.5 µM.
With CN(C(=O)OCc1ccccc1)[C@H](C(=O)Nc1cccc(CN)c1)c1ccc(OCc2ccccc2)cc1 the IC50 was 43.8 µM.
For CCCOc1ccc([C@@H](CC(=O)Nc2cccc(CN)c2)NC(=O)OCc2ccccc2)cc1, the IC50 was 24.7 µM and 59.4 µM.
CN(C)c1cc(-c2ccc(S(=O)(=O)Nc3ccc(Cl)cc3C(=O)O)cc2)ccn1 was tested, and the IC50 was 87.6 µM.
CN1CC=C(c2ccc(S(=O)(=O)Nc3ccc(Cl)cc3C(=O)O)cc2)CC1 was tested, and the IC50 was > 99.5 µM.
O=C(O)c1cc(Cl)ccc1S(=O)(=O)N[C@H]1CCN(Cc2ccccc2)C2(CC2)C1 was tested, and the IC50 was > 99.5 µM.
With CS(=O)(=O)c1ccc(-c2cccc([C@H](NC(=O)OCc3ccccc3)C(=O)Nc3cccc(CN)c3)c2)cn1 the IC50 was > 99.5 µM.
In the case of O=C(O)c1cc(Cl)ccc1S(=O)(=O)NC1CCN(C(=O)c2ccccc2C(F)(F)F)CC1, the IC50 is reported as > 99.5 µM.
For NCc1cccc(NC(=O)[C@H](NC(=O)OCc2ccccc2)C2CCC(c3ccccc3)CC2)c1 (stereo partly drawn), the IC50 was 6.26 µM and 5.78 µM.
In the case of NCc1ccccc1NC(=O)c1cc(Cl)cc(NC(=O)OCc2ccccc2)c1, the IC50 is reported as > 99.5 µM.
With c1cncc(C2CC(NCc3n[nH]c4ccccc34)C2)c1 (stereo not drawn) the IC50 was > 99.5 µM.
With COc1ccc(NS(=O)(=O)c2ccc(Cl)cc2C(=O)O)cc1S(=O)(=O)N1CCCC1 the IC50 was > 99.5 µM.
Cc1cc(C)n(-c2ccc(NS(=O)(=O)c3ccc(Cl)cc3C(=O)O)cc2)n1 was tested, and the IC50 was > 99.5 µM.
For Cc1ncc(COc2ccc([C@H](NC(=O)OCc3ccccc3)C(=O)Nc3cccc(CN)c3)cc2)cn1, the IC50 was > 99.5 µM.
With CCCCN1Cc2ccc(NS(=O)(=O)c3ccc(Cl)cc3C(=O)O)cc2C1 the IC50 was > 99.5 µM.
O=C(O)c1cc(Cl)ccc1S(=O)(=O)Nc1ccc(F)c(NC(=O)C2CC2)c1 was tested, and the IC50 was > 99.5 µM.
O=C(O)c1cc(Cl)ccc1S(=O)(=O)NC1CCN(c2nc(C3CC3)cc(C(F)(F)F)n2)CC1 was tested, and the IC50 was 15.5 µM.
CCc1ccc(S(=O)(=O)N[C@@H](C(=O)Nc2cccc(CN)c2)c2ccc(OCc3ccccc3)cc2)cc1 was tested, and the IC50 was 92 µM.
NCc1cccc(NC(=O)c2cc(Br)cc(NC(=O)OCc3ccccc3)c2)c1 showed an IC50 of 54.3 µM.
With O=C(O)c1cc(Cl)ccc1S(=O)(=O)Nc1nn(Cc2ccccc2)cc1Cl the IC50 was > 99.5 µM.
